Laboratory results published in patent US12090184B2, “Traditional Chinese medicine composition for treating dermatophytosis and bromhidrosis and application thereof” (JINGCHU UNIVERSITY OF TECHNOLOGY, priority 2019, dated 2024).

Tests used:
Assay type in all cases: cell-based
[1] = tested on: Aspergillus fumigatus ATCC-MYA-3626; test: in vitro anti-fungal test, 80% MIC (CLSI M-38P)
From the text: (§1) 1. The present disclosure conducts an in vitro anti-fungal test on the composition extracts in Examples 1 to 3, and the single radix sophorae flavescentis alkaloid and single peristrophe japonica extracts prepared in Example 3. The cell strains used in the test are all ATCC standard strains provided by the Fungi Center of the Medical Microbial (Virus) Species Collection and Management Center of the Ministry of Health, which includes as follows, Aspergillus: Aspergillus fumigatus Strain Number: CMCCC(F) A1g (ATCC-MYA-3626); Candida: Candida albicans Strain Number: CMCCC (F) C.1L (ATCC90028); Trichophyton: Trichophyton rubrum Strain Number: CMCCC(F)T.1h (ATCC-MYA-4438); Trichophyton mentagrophytes Strain Number: CMCCC(F)T.5e (ATCC-MYA-4439).
(§2) 2. The specific experimental methods are carried out with reference to the standard methods of yeast M-27A3 and filamentous fungi M-38P issued by the Clinical and Laboratory Standards Institute (US, CLSI) of the United States.
(§3) Before the experiment, after activating the experimental bacteria, yeast are cultured on Sabouraud Dextrose Agar(SDA) medium at 30° C. for 48 hours; filamentous fungi are cultured on potato dextrose agar (PDA) medium at 26° C. for 7 days to 10 days. A suspension is prepared with sterile normal saline, the suspension is counted by a hemocytometer, and is dilute with RMPI-1640 liquid medium containing 2% glucose in multiple amounts to Candida albicans 1.0×10^3 cfu/mL; the other three filamentous fungi are prepared into 2.5×10^4 cfu/mL. 0.1 mL of bacterial solutions are taken respectively, the culture medium containing the compositions prepared in Examples 1 to 3 and the same doses of the radix sophorae flavescentis alkaloids and the peristrophe japonica extracts prepared in Example 3 are added into each well, wherein the well 11 is a vehicle control, the well 12 is a medium control. 0.1 mL of the diluted solvent is added into the vehicle control well, and 0.1 mL of the distilled water is added into the control well. […]

[2] = tested on: Trichophyton mentagrophytes ATCC-MYA-4439; test: in vitro anti-fungal test, 80% MIC (CLSI M-38P)
From the text: as §1, §2, §3

[3] = tested on: Trichophyton rubrum ATCC-MYA-4438; test: in vitro anti-fungal test, 80% MIC (CLSI M-38P)
From the text: as §1, §2, §3

[4] = tested on: Candida albicans ATCC90028; test: in vitro anti-fungal test, 80% MIC (CLSI M-27A3)
From the text: as §1
2. […]
Before the experiment, after activating the experimental bacteria, yeast are cultured on Sabouraud Dextrose Agar(SDA) medium at 30° C. for 48 hours; filamentous fungi are cultured on potato dextrose agar (PDA) medium at 26° C. for 7 days to 10 days. A suspension is prepared with sterile normal saline, the suspension is counted by a hemocytometer, and is dilute with RMPI-1640 liquid medium containing 2% glucose in multiple amounts to Candida albicans 1.0×10^3 cfu/mL; the other three filamentous fungi are prepared into 2.5×10^4 cfu/mL. […]

CCC(C)n1ncn(-c2ccc(N3CCN(c4ccc(OCC5COC(Cn6cncn6)(c6ccc(Cl)cc6Cl)O5)cc4)CC3)cc2)c1=O (stereo not shown) [Itraconazole]
80% MIC [1]: 4.2
80% MIC [2]: 5.8
80% MIC [3]: 5.6
80% MIC [4]: 3.8
